{
  "source": "patent US20260374809A1",
  "about": "“COMPOUNDS USEFUL FOR THE TREATMENT AND/OR CARE OF THE SKIN, HAIR, NAILS AND/OR MUCOUS MEMBRANES” (Lubrizol Advanced Materials, Inc., priority 2022, published 2026)",
  "key": {"[1]": {"tested_on": "Musclebind Like Protein 1 (MBNL1)", "test": "MBNL1 protein in human dermal fibroblasts (HDFa), immunofluorescence", "type": "cell-based", "details": "HDFa cells; for % Fold induction (FI) (MEAN ± SEM), MBNL1 intensity: 24 hours, basal control = 100; for % MME (MEAN ± SEM), comparative MBNL1 intensity with respect to electrical stimulation: MES = 100, control = 0", "experimental": "Musclebind Like Protein 1 (MBNL1) in Human Dermal Fibroblasts (HDF)\nThe aim of this study was to evaluate the increase of MBNL1 protein in human skin fibroblasts after electrical stimulation, mimicking a microcurrent-like treatment. Topical products able to increase MBNL1 protein amount in fibroblast cells, in a similar way to the microcurrent-like treatment, could induce the same antiaging benefits on the skin avoiding the side-effects of physical microcurrent treatment\nCells were seeded at 100.000 cells/well in 12-well plates over sterile glass slides and incubated at 37 °C, 5% CO2 for 48 hours. After that, electrical stimulation was performed. Glass slides were transferred to 6-well plates and were electro-stimulated (1.5V) for 1 hour using a C-dish device (IonOptix™) at room temperature. An identical 6-well plate with non-stimulated cells were incubated at room temperature for 1 hour. After electrostimulation, glass slides were transferred again to a 12-well plate and incubated at 37 °C, 5% CO2 for 24 hours. Three different replicates were used for each condition.\nCells were seeded at 8.000 cells/well in 96-well plates and incubated at 37 °C, 5% CO2 for 48 hours. After the incubation time, cells were treated with PEP-1 (H-Leu-Pro-Val-Thr-OH) at 0.01 mg/ml, 0.1 mg/ml and 0.5 mg/ml for 24 hours. Cells incubated with medium alone were used as a control. Three replicates were carried out for each condition.\nAfter 24 hours of incubation, cells were washed two times with phosphate buffered saline (PBS), fixed with 4% PFA (paraformaldehyde solution) for 15 minutes and washed again two times. After that, cells were permeabilized with 1% X-Triton solution for 15 minutes and blocked with 5% bovine serum albumin (BSA) solution for 1 hour. Cells were incubated with 1/20 dilution of primary antibody against MBNL1 protein (Sigma) in 5% BSA solution for 2 hours. After the incubation time, cells were washed and incubated with 1/200 dilution of secondary antibody (AlexFluor™ 488) in 5% BSA solution for 1 hour. Finally, cells were washed 3 times and stained with 4′,6-Diamidine-2′-phenylindole dihydrochloride (DAPI) mount solution for nuclei detection. MBNL1 protein quantification were measured as fluorescence intensity of MBNL1 normalized by the number of nuclei for each condition using a confocal microscope (Operetta® confocal microscope, PerkinElmer Inc) using Alexa 488 Green channel (Ex: 460-490 nm/Em: 500-550 nm). Results are expressed as an MBNL1 level that is relative to that of the control condition.\nAt least, three independent experiments were analyzed in this assay.\nResults were calculated using the following formula: […]\nFor comparative purposes, the effect of the peptide was compared with that of MES. The effect was calculated as follows: […]"}, "EDA-Fn": {"tested_on": "EDA-Fn", "test": "Myofibroblast marker EDA-Fn by immunofluorescence", "type": "cell-based, human", "details": "0.01 mg/ml; basal control = 100.0, MES = 135.7", "experimental": "EDA-Fn is an isoform of fibronectin, which serves as marker for the presence of myofibroblasts.\nAfter the experimental protocol described in EXAMPLE 8, recovery of the cells was performed by the extraction of cells from the 3D culture and their reseeding on glass coverslips. To recover cells, the collagen hydrogel was digested in agitation at 37 °C with a collagenase solution. After the digestion, cycles of centrifugation and washing were performed to eliminate collagen debris. Then, cells were seeded on coverslips in replicated as in the conditions of the 3D cultures of EXAMPLE 8. For future fluorescence analysis, cells were seeded on glass coverslips previously coated with collagen at a density of 3×10^5 fibroblasts/cm^2, let attach overnight and fixed with 4% PFA.\nGlass coverslips were used to perform EDA-Fn immunofluorescence, a marker of myofibroblasts. EDA-Fn immunofluorescence was performed in control samples (with or without MES) and after peptide treatment (PEP-1 0.01 mg/ml). Briefly, cells attached to coverslips were permeabilized by 0.5% Triton X-100 in PBS for 10 minutes at room temperature. Then, blocking solution (4% BSA in PBS) was added for 2 hours. […] Finally, green fluorescence intensity was quantified in Operetta (PerkinElmer) for each condition and normalized by the number of nuclei. […]"}},
  "note": "Where a SMILES comes first, the peptide text is derived from it.",
  "data": [
    {"smiles": "CC(C)C[C@H](N)C(=O)N1CCC[C@H]1C(=O)N[C@H](C(=O)N[C@H](C(=O)O)[C@@H](C)O)C(C)C", "note": "[PEP-1, H-Leu-Pro-Val-Thr-OH] (H-LPVT-OH)", "values": [
      {"measurement": "% Fold induction (FI) (MEAN ± SEM), MBNL1 intensity", "setting": "[1]; 0.01 mg/ml", "result": "106.66 ± 2.65", "unit": "%"},
      {"measurement": "% MME (MEAN ± SEM), comparative MBNL1 intensity with respect to electrical stimulation", "setting": "[1]; 0.01 mg/ml", "result": "52.73 ± 2.65", "unit": "%"},
      {"measurement": "% Fold induction (FI) (MEAN ± SEM), MBNL1 intensity", "setting": "[1]; 0.1 mg/ml", "result": "107.67 ± 1.62", "unit": "%"},
      {"measurement": "% MME (MEAN ± SEM), comparative MBNL1 intensity with respect to electrical stimulation", "setting": "[1]; 0.1 mg/ml", "result": "60.73 ± 1.62", "unit": "%"},
      {"measurement": "% Fold induction (FI) (MEAN ± SEM), MBNL1 intensity", "setting": "[1]; 0.5 mg/ml", "result": "109.46 ± 2.68", "unit": "%"},
      {"measurement": "% MME (MEAN ± SEM), comparative MBNL1 intensity with respect to electrical stimulation", "setting": "[1]; 0.5 mg/ml", "result": "74.90 ± 2.68", "unit": "%"},
      {"measurement": "Fold induction of EDA-Fn as myofibroblast marker, % Fold induction (FI) MEAN ± SEM", "setting": "EDA-Fn", "result": "172.3 ± 14.36", "unit": "%"}
    ]}
  ]
}
